What was measured:
[1] = tested on: E. coli K-12 biofilm cultures; experiment: Biofilm antibiotic killing assay; type: cell-based, Escherichia coli
EHEC infection = type: in vivo, Caenorhabditis elegans; conditions: MMC 10 μg/mL, ciprofloxacin 5 μg/mL, ampicillin 100 μg/mL, 6 h exposure; four replicates
[2] = tested on: S. aureus (methicillin sensitive); experiment: Planktonic antibiotic killing assay; type: cell-based, Staphylococcus aureus; conditions: rich medium (TSB), MMC 10 μg/mL, ciprofloxacin 5 μg/mL, 3 h
Method: In order to obtain exponential and mid-stationary phase cultures in LB, buffered LB or TSB, overnight cultures (16 h) were diluted 1:1000 in fresh medium and grown to the desired turbidity (i.e., a turbidity below 2 at 600 nm for exponential phase and a turbidity of 3 to 4 at 600 nm for mid-stationary phase). Late-stationary phase cultures in LB or buffered LB were obtained by growing overnight cultures (16 h). In order to obtain exponential and late-stationary phase cultures in M9-glucose, overnight cultures (16 h) were washed diluted 1:1000 in M9-glucose and grown for the desired period of time (i.e., a turbidity of 0.4 at 600 nm for exponential phase and 24 h of growth for late-stationary phase). Anaerobically grown cultures were maintained with ˜20% CO2, ˜79% N2, and ˜1% H2. In order to obtain rifampicin-induced persister cultures in buffered LB, overnight cultures (16 h) were diluted 1:1000 in fresh medium and grown to a turbidity of 0.8 at 600 nm. Cultures were exposed to rifampicin (100 μg/mL) for 30 min, centrifuged, and resuspended in fresh medium to remove the rifampicin.

E. coli K-12 cells = experiment: Test of DNA crosslinking compounds for antimicrobial activity; type: cell-based, Escherichia coli; conditions: 100 μg/mL
Method: Stocks of cisplatin (2 mg/mL, Sigma-Aldrich, St. Louis, Mo., USA) were prepared in 0.1M NaClO4 and MMC (0.5 mg/mL, Fisher Scientific, Pittsburgh, Pa., USA) was prepared in water. Stocks of busulfan (2 mg/mL, Cayman Chemical, Ann Arbor, Mich., USA), melphalan (2 mg/mL, Cayman Chemical), dynemicin A (5 mg/mL, AdooQ, Irvine, Calif., USA), and tirapazamine (0.5 mg/mL, Sigma-Aldrich) were prepared in dimethylsulfoxide, the stock of cyclophosphamide (0.5 mg/mL, Cayman Chemical) was prepared in water, and the stock of carmustine (214 mg/mL, Enzo Life Sciences, Farmingdale, N.Y., USA) was prepared in ethanol.
In this Example we tested seven other DNA crosslinking compounds: busulfan (100 μg/mL), carmustine (100 μg/mL) cisplatin (100 μg/mL), cyclophosphamide (100 μg/mL), dynemicin A (200 μg/mL), melphalan (100 μg/mL), and tirapazamine (10 μg/mL).

[3] = tested on: S. aureus clinical isolates 5B and 50F; experiment: Persister cell assay, clinical isolates; type: cell-based, Staphylococcus aureus; conditions: for survival: stationary phase, 500 μg/mL of cisplatin
Method: For the persister cell assay of the pathogens, stationary-phase cells were used. Cultures of EHEC, P. aeruginosa, and S. aureus were prepared by a 1:1000 dilution of overnight grown cultures (LB medium for EHEC and P. aeruginosa, TSB for S. aureus) into fresh buffered LB medium for EHEC, M9-glucose for P. aeruginosa, and TSB for S. aureus and re-growing the cells to a turbidity of 3 to 4 at 600 nm for EHEC and S. aureus and growing for 24 h for P. aeruginosa. […]

E. coli K-12 = experiment: Minimum inhibitory concentration (MIC) assay; type: cell-based, Escherichia coli; conditions: 16 h, lack of turbidity
Method: Minimum inhibitory concentration (MIC) assay. To determine the MICs of cisplatin for E. coli K-12, enterohemorrhagic E. coli (EHEC), S. aureus, and P. aeruginosa (PAO1 and PA14), freshly inoculated cultures (at least two independent cultures) in buffered LB (TSB for S. aureus) were incubated for 16 h with varying concentrations of cisplatin, and growth inhibition was assayed by the lack of turbidity.

For `CO[C@@]12[C@H](COC(N)=O)C3=C(C(=O)C(C)=C(N)C3=O)N1C[C@@H]1N[C@@H]12` [MMC, mitomycin C], the “fold more susceptible to MMC than ciprofloxacin” value ([1]; anaerobic biofilm cultures in M9-glucose) was 2,500 fold, the “fold more cells killed than ciprofloxacin” value ([1]; biofilms in M9-glucose, 24 h of treatment) was 100,000 fold and the “biofilm cell viability after treatment” value ([1]; biofilms in M9-glucose, MMC 10 μg/mL, 24 h) was “nearly eliminating cells”. The “survival of the EHEC-infected worms” value (EHEC infection) was “higher than with either ciprofloxacin or ampicillin”, the survival ([2]; exponential phase) was “eradicating” and the survival ([2]; mid-stationary phase) was “eradicating”.

With `N.N.[Cl][Pt][Cl]` [cisplatin, cis-diamminodichloroplatinum(II)] the antimicrobial activity (E. coli K-12 cells) was “exhibited antimicrobial activity”, the “cell viability after treatment” value ([3]; both clinical isolates, 800 μg/mL) was “completely eradicate” and the survival ([3]; isolate 5B) was 2.5±3.5%. For the same compound, the survival ([3]; isolate 50F) was 10±4% and the MIC (E. coli K-12) was 100 µg/mL.

From patent US10238689B2, “Methods for combating bacterial infections by killing persister cells with mitomycin C and/or cisplatin” (THE PENN STATE RESEARCH FOUNDATION, priority 2015, dated 2019)
